Assay results as given in a melting point compilation (Tetko et al.).

melting point [°C]	Compound
75 to 77	c1ccc(-c2csc(N3CCOCC3)n2)cc1
161 to 163	O=C(O)c1cccc(F)c1Sc1ccccc1
45 to 47	CC(=O)c1c(O)cc(F)cc1F
176 to 178	Cc1sc(NC(=O)CCl)nc1-c1ccc(Cl)cc1
185 to 189	CC(C)(C)c1nnc(S)n1N
118 to 120	COc1ccccc1CNc1cccc2cnccc12
174 to 176	Cc1ccc2c(CCl)cc(=O)oc2c1C
209 to 211	NC(=O)C1CC(C(=O)O)=NN1c1ccccc1 (stereo not given)
89 to 91	O=C(O)C1CC1c1c(F)cccc1F (stereo not given)
61 to 63	N#CC1(N2CCCC2)CCNCC1
120 to 122	O=C(O)c1ccccc1SC(F)(F)F
149 to 151	NS(=O)(=O)c1ccccc1Cn1ccnc1
110 to 112	CC(C)(C)n1ncc(C(=O)O)c1C(F)(F)F
168 to 170	NC1=NN(c2ccccc2)CC1
114 to 116	NC(=O)NC1CC1
326 to 330	O=C(O)c1cccc2[nH]cnc12
114 to 116	NC(=NO)c1ccccc1CN1CCCCC1
303 to 305	Nc1nnc(NS(=O)(=O)c2ccccc2)[nH]1
79 to 81	COC1CC(C(=O)O)N(C(=O)OC(C)(C)C)C1 (stereo not given)
19 to 21	CC(=O)N1CCC(N)CC1
149 to 151	OCC1CNC(c2ccccc2)=NO1 (stereo not given)
99 to 101	COc1ccc(C(=O)CBr)cc1Cl
177 to 179	CS(=O)(=O)c1cccc(C(N)=O)c1

melting point [°C]	Compound
110 to 114	O=C(O)CCNS(=O)(=O)c1ccccc1
119 to 121	CC(C)N(C)S(=O)(=O)c1ccc(N)cc1
244 to 246	O=c1sc2ccccc2nc1NO
172 to 174	NS(=O)(=O)c1ccc(Cl)c(NC(=O)CCl)c1
209 to 211	O=C(O)CCN1C(=O)c2ccc(Br)cc2C1=O
75 to 77	CN(C(N)=O)c1ccccc1
95 to 99	Nc1cc(-c2ccco2)no1
132 to 134	CC(=O)Cn1c(CCl)nc2sc3c(c2c1=O)CCCC3
255 to 257	COc1ccc(C(=O)N2CCCC(C(=O)O)C2)c2ccccc12 (stereo not given)
144 to 146	NC(=S)Cc1cn2ccccc2n1
125 to 130	Nc1cccc(-c2cn3cccnc3n2)c1
202 to 204	O=C(O)CCc1nc(-c2ncccn2)no1
219 to 221	O=C(O)Cc1cc2c(cc1[N+](=O)[O-])OCCO2
118 to 120	O=C(O)/C=C/c1cnn(Cc2ccccc2)c1
249 to 251	CN1CC(=O)Nc2ccccc2C1=O
72 to 74	CCOc1cc(C=CC(=O)O)ccc1OCC(C)C
89 to 91	COC(=O)c1cc(S(=O)(=O)Cl)ccc1Br
183 to 187	COc1ccc2c(CC(=O)O)cc(=O)oc2c1
175 to 177	CC(C)(C)S(=O)(=O)Cc1cccc(N)c1
163 to 165	CCOc1ccc2nc(NS(=O)(=O)c3cc(C(=O)O)c(Cl)cc3Cl)sc2c1
169 to 171	CC(C)(C)OC(=O)Nc1ccc(C=O)cn1
183 to 185	Nc1nc2ccc(Br)cn2n1
102 to 104	COc1cccc(C(C)=CC(=O)O)c1

melting point [°C]	Compound
307 to 309	Cc1nnc2ccc(C(=O)O)cn12
63 to 65	O=C(O)CCSc1ccc2c(c1)OCCCO2
181 to 183	O=C(O)c1ccc(CN2CCCCC2=O)cc1
66 to 68	O=C(O)CCc1nc(Cc2ccccc2)no1
115 to 117	CCn1c(CCl)nc2c(F)cccc21
183 to 185	CC(=O)c1c(C)nsc1N
66 to 68	O=C(O)CNC(=O)c1ccccc1OC(F)F
126 to 128	CS/C(=N\C#N)N1CCOCC1
169 to 171	CC(C)(C)OC(=O)NN1CC(C(=O)O)CC1=O (stereo not given)
132 to 134	CC(C(O)c1ccccc1)N(C)S(=O)(=O)c1ccc([N+](=O)[O-])cc1 (stereo not given)
147 to 149	N#Cc1ccccc1Oc1ccccc1C(=O)O
170 to 172	Nc1cccc(S(=O)(=O)Nc2nccs2)c1
219 to 221	Nc1ccc(-c2nncn2-c2ccccc2)cn1
209 to 211	Cc1ccc(C(=O)O)cc1S(C)(=O)=O
127 to 129	CCOc1ccccc1C(=O)NC(C(=O)O)C(C)C (stereo not given)
103 to 105	CCOC(=O)c1oc(NC)nc1C
210 to 212	O=C(O)Cn1nnc2ccccc21
95 to 97	COC(=O)c1sc(C)c(Br)c1O
202 to 204	O=C(O)c1cccnc1Nc1cccc(F)c1
62 to 64	O=C(c1cccc(F)c1)c1cccc(Cl)c1
99 to 101	Cc1cncc(CCC(=O)O)c1
189 to 191	COc1ccc(Br)c(-c2nnc(N)o2)c1
119 to 121	Cn1nc(C(F)(F)F)c(C(=O)O)c1C(F)(F)Cl

melting point [°C]	Compound
60 to 62	COC(=O)c1cc(S(N)(=O)=O)cnc1Cl
189 to 191	COc1ccc(C(=O)O)nc1I
135 to 137	O=C(NC1CC1)C(Cl)c1ccc(F)cc1 (stereo not given)
130 to 132	CN(C)C(=O)c1ccc(Cl)c(S(N)(=O)=O)c1
77 to 79	Cc1nn(-c2ccccc2)c(C)c1CN
142 to 144	Cc1nnc(Sc2ccc(N)c(C)c2)s1
256 to 258	COc1ccc2c(C)cc3nnc(S)n3c2c1
174 to 176	OCc1c(Cl)nc2sccn12
100 to 102	NC(=O)CCc1ccccc1
109 to 111	CN(C)c1ccc(C#N)c(N)c1
167 to 169	CN(C(=O)c1ccc(Br)o1)c1ccccc1C(=O)O
109 to 111	Cc1cc(C)c(C(=O)O)[nH]1
224 to 226	O=C(Nc1nc2ccccc2s1)OCC(F)(F)F
50 to 52	Cc1ccc2c(c1C)OCCCC2=O
298 to 300	CC(C)C1CCC2(CC1)NC(=O)NC2=O (stereo not given)
240 to 242	Cc1cnn(-c2ccc(C(=O)O)cc2)c1
158 to 160	CC(C)C(=O)Nc1ccc(O)cc1
251 to 253	O=C(O)c1c[nH]nc1-c1cccc(Cl)c1
84 to 86	NCCNS(=O)(=O)c1cccc(Cl)c1
134 to 136	COC(=O)c1cccc(OCC(N)=NO)c1
175 to 180	Cc1cc(-n2c(C)cc(C(=O)O)c2C)no1
33 to 35	Nc1ccc(SC(F)(F)F)c(F)c1
140 to 142	O=C(NCc1ccccc1)c1cccc(O)c1

melting point [°C]	Compound
234 to 236	O=C(O)CNC(=O)c1ncccc1O
170 to 172	O=C(O)c1cc2c(cc1O)CCCC2
162 to 164	Nn1c(S)nnc1C1CCCCO1 (stereo not given)
167 to 169	O=C(O)CNC(=O)c1ccccn1
67 to 69	OC(CN1CCNCC1)c1ccccc1 (stereo not given)
112 to 114	O=C(O)CCNC(=O)c1cc(F)ccc1Br
173 to 175	O=Cc1cc(C(=O)O)cs1
151 to 153	COCCN1C(=O)c2ccc(C(=O)O)cc2S1(=O)=O
239 to 241	NC(=O)c1ccc(Cl)nn1
270 to 272	O=c1[nH]nc(-c2ccc(F)cc2)c2ccccc12
57 to 59	Ic1cnc2ccccc2c1
101 to 103	NC(=O)CC(F)(F)F
65 to 67	Nc1ccc2c(c1)OC1(CCCCC1)O2
278 to 280	N#Cc1cn(-c2ccc([N+](=O)[O-])cc2)nc1N
163 to 165	NC(=O)c1ccc(F)cc1Br
118 to 120	COC(=O)C(C)Sc1ccccc1C(=O)O (stereo not given)
95 to 97	O=C(CCl)NCC1(c2ccccc2)CCC1
64 to 66	CCCc1ccc(-c2ccc(N)cc2)cc1
236 to 238	CC1(C)NC(=O)N2C1=NC(=N)C2(C)C
151 to 153	CSc1ccc2cc(CCl)c(Cl)nc2c1
80 to 82	CC(C)C(O)c1nccn1C (stereo not given)
155 to 157	O=C(O)CSc1nc2cc(Cl)ccc2n1Cc1ccccc1
184 to 186	Cc1cc(C)n(-c2ccc(Cl)c(C(=O)O)n2)n1

melting point [°C]	Compound
118 to 120	Nc1cccc(-n2ccnn2)c1
149 to 151	Cc1ccc(C)c(N2N=C(C(=O)O)CCC2=O)c1
267 to 269	O=C(O)c1ccc(NS(=O)(=O)c2cccc([N+](=O)[O-])c2)cc1
135 to 137	CC(C)(C)OC(=O)Nc1cccc(O)c1
74 to 76	Nc1ccc(N2CCOCC2)cc1C(F)(F)F
71 to 73	COC(=O)C1CCc2ccccc2C1=O (stereo not given)
189 to 191	COc1cc(OC)c(N)c(C(=O)O)c1
121 to 123	Cc1nc2ccccc2nc1CCl
44 to 46	Cc1cccc(-c2nc(CCl)no2)c1
142 to 144	CCCOc1ccc(C(N)=S)cc1
69 to 71	COc1ccc([N+](=O)[O-])cc1C#N
226 to 228	CCOc1ccc2c(c1)NC(=O)C2=O
130 to 132	O=C(O)c1ccc(OCC2CCCO2)cc1 (stereo not given)
259 to 261	N#Cc1cc([N+](=O)[O-])cnc1O
113 to 115	CC(C)(C)OC(=O)NC1CCC(=O)CC1
187 to 189	Cc1sc2ncnc(SCCC(=O)O)c2c1C
127 to 129	O=C(NCCN1CCOCC1)C1CCNCC1
88 to 90	CCC(C)c1ccc(C(=O)O)cc1 (stereo not given)
90 to 92	COc1cc(C=O)cc(Br)c1OC(F)F
189 to 191	CN(C(=O)c1ccco1)c1ccccc1C(=O)O
170 to 172	NC(=O)NC(=O)C(Cl)c1ccccc1 (stereo not given)
108 to 110	CCc1ccc(-c2csc(NC(=O)C(C)Cl)n2)cc1 (stereo not given)
80 to 82	O=C(O)CC1CCc2ccccc2C1 (stereo not given)

Compound	melting point [°C]
[N-]=[N+]=Nc1ccc(Cl)cc1Cl	52 to 54
COc1ccc(-c2nn(Cc3ccccc3)cc2C(=O)O)cc1OC	110 to 114
Cn1nccc1C1CCNCC1	66 to 68
Cc1cnn([N+](=O)[O-])c1	41 to 43
O=C(CCl)NCC(F)(F)F	51 to 53
O=CC(Br)C=Nc1nccs1 (stereo not given)	137 to 139
O=C(CCl)Nc1ccccc1I	38 to 40
